Measured values reported in the NIST ThermoML archive (doi:10.1016/j.fluid.2014.07.021).
± gives the expanded uncertainty stated by the source.

Settings: Crystal; DTA

| SMILES | Normal melting temperature |
| --- | --- |
| CCCCCCCCCCCCCCCCCCCCO [1-eicosanol] | 64 ± 2 °C |
| CCCCCCCCCCCCCCO [1-tetradecanol] | 38 ± 2 °C |
